Drawing on patent US20110263566A1 (priority 2008, published 2011), this text covers IC50 for 29 molecules.

Common to all, as to experiment: cells
For experiment [1], the system named is HT-1197 cells. The note with it: Homo sapiens, HT1197, 72 h, read-out: IC50 (microM) (HT1197). As to the method: (§1) To evaluate the expression status of PBK in several cell lines, western blot analysis was performed using crude cell lysate collected from those cells.
(§2) 100 micro-L of cell suspension was seeded onto 96-well microtiter plate (ViewPlate-96FTC, PerkinElmer). […] Cellular growth was determined using Cell Counting Kit-8 (DOJINDO) at 72 hours after the exposure of the candidate inhibitors. […] Accurate IC50 values were calculated as described previously.

Experiment [2] has as its system T47D cells. The following applies: Homo sapiens, 72 h, read-out: IC50 (microM) (T47D). As to the method:
as §1, §2

The test system of experiment [3] is BT-549 cells. The following applies: Homo sapiens, BT-549, 72 h, read-out: IC50 (microM) (BT549). As to the method: as §1, §2

SMILES strings stand for the structures.

One may read the IC50 as the concentration needed to halve the response being measured. In the case of `O=C(N[C@H]1CCCNC1)c1ccc(O)c2[nH]c(-c3cccs3)nc12` [Example 38, (S)-7-Hydroxy-N-(piperidin-3-yl)-2-(thiophen-2-yl)-1H-benzo[d]imidazole-4-carboxamide], the IC50 stood at 33 µM in experiment [1], 0.36 µM in experiment [2] and 0.46 µM in experiment [3].
On the same counts, the results for `CN1CCCC(NC(=O)c2ccc(O)c3[nH]c(-c4cccs4)nc23)C1` (stereo not drawn) [Example 41, 7-Hydroxy-N-(1-methylpiperidin-3-yl)-2-(thiophen-2-yl)-1H-benzo[d]imidazole-4-carboxamide] are 24 µM, 9.8 µM and 8.1 µM.
The like results for `O=C(NCC1CCCNC1)c1ccc(O)c2[nH]c(C3CC3)nc12` (stereo not drawn) [Example 6, 2-Cyclopropyl-4-hydroxy-N-(piperidin-3-yl-methyl)-1H-benzo[d]imidazole-7-carboxamide] were, in that order, > 100 µM, 55 µM and 30 µM.
The like results for `O=C(NC1CCNCC1)c1ccc(O)c2[nH]c(-c3cccs3)nc12` [Example 40, 7-Hydroxy-N-(piperidin-4-yl)-2-(thiophen-2-yl)-1H-benzo[d]imidazole-4-carboxamide] were, in that order, > 100 µM, 13 µM and 73 µM.
As to `O=C(N[C@H]1CCCNC1)c1ccc(O)c2[nH]c(C3CCCC3)nc12` [Example 16, (S)-2-Cyclopentyl-4-hydroxy-N-(piperidin-3-yl)-1H-benzo[d]imidazole-7-carboxamide], the figures for the IC50 in experiment [1], in experiment [2] and in experiment [3] were 19 µM, 2.6 µM and 0.37 µM, respectively.
The like results for `NC1CCCC(NC(=O)c2ccc(O)c3[nH]c(C4CC5CCC4C5)nc23)C1` (stereo not drawn) [Example 55, N-(3-Aminocyclohexyl)-2-(bicyclo[2.2.1]heptan-2-yl)-7-hydroxy-1H-benzo[d]imidazole-4-carboxamide] were, in that order, 74 µM, 9.1 µM and 2.9 µM.
On the same counts, the results for `O=C(NCC1CCCNC1)c1ccc(O)c2[nH]c(C3CCCC3)nc12` (stereo not drawn) [Example 15, 2-Cyclopentyl-4-hydroxy-N-(piperidin-3-ylmethyl)-1H-benzo[d]imidazole-7-carboxamide] are > 100 µM, 21 µM and 25 µM.
On the same counts, the results for `N[C@H]1CC[C@@H](CNC(=O)c2ccc(O)c3[nH]c(C4CC5CCC4C5)nc23)CC1` (stereo partly drawn) [Example 56, N-{[(cis)-4-Aminocyclohexyl]methyl}-2-(bicyclo[2.2.1]heptan-2-yl)-7-hydroxy-1H-benzo[d]imidazole-4-carboxamide] are 61 µM, 30 µM and 10 µM.
For the molecule `O=C(NC[C@@H]1CCCNC1)c1ccc(O)c2[nH]c(Cc3cccs3)nc12` [Example 58, (R)-7-hydroxy-N-(piperidin-3-ylmethyl)-2-(thiophen-2-ylmethyl)-1H-benzo[d]imidazole-4-carboxamide], the IC50 in experiment [1] was 21 µM; in experiment [2], 24 µM; in experiment [3], 13 µM.
Regarding `O=C(N[C@H]1CCCNC1)c1ccc(O)c2[nH]c(-c3ccc(Br)s3)nc12` [Example 51, (S)-2-(5-bromothiophen-2-yl)-7-hydroxy-N-(piperidin-3-yl)-1H-benzo[d]imidazole-4-carboxamide], the IC50 in experiment [1] amounted to 5.7 µM; in experiment [2] it was 0.14 µM; in experiment [3], 0.18 µM.
The like results for `O=C(N[C@H]1CCCNC1)c1ccc(O)c2[nH]c(-c3ccc(N4CCNCC4)s3)nc12` [Example 57, (S)-7-hydroxy-2-(5-(piperazin-1-yl)thiophen-2-yl)-N-(piperidin-3-yl)-1H-benzo[d]imidazole-4-carboxamide] were, in that order, 33 µM, 1.1 µM and 1.1 µM.
For the molecule `NC12CC3CC(C1)CC(NC(=O)c1ccc(O)c4[nH]c(-c5cccs5)nc14)(C3)C2` [Example 54, 2-(Thiophene-2-yl)-7-hydroxy-N-(adamantate-3-ylamino)-1H-benzo[d]imidazole-4-carboxamide], the IC50 in experiment [1] was 10 µM; in experiment [2], 1.6 µM; in experiment [3], 3.3 µM.
On the same counts, the results for `O=C(NC[C@H]1CCCNC1)c1ccc(O)c2[nH]c(Cc3cccs3)nc12` [Example 60, (S)-7-hydroxy-N-(piperidin-3-ylmethyl)-2-(thiophen-2-ylmethyl)-1H-benzo[d]imidazole-4-carboxamide] are 33 µM, 42 µM and 49 µM.
The like results for `N[C@H]1CC[C@H](NC(=O)c2ccc(O)c3[nH]c(-c4cccs4)nc23)CC1` [Example 47, N-(4-Aminocyclohexyl)-7-hydroxy-2-(thiophen-2-yl)-1H-benzo[d]imidazole-4-carboxamide] were, in that order, 58 µM, 6.2 µM and 5.3 µM.
Consider `O=C(NC1CCCNC1)c1ccc(O)c2[nH]c(C3CC3)nc12` (stereo not drawn) [Example 11, 2-cyclopropyl-4-hydroxy-N-(piperidin-3-yl)-1H-benzo[d]imidazole-7-carboxamide], for which the IC50 in experiment [1] was 44 µM; in experiment [2] it was 3.2 µM; in experiment [3], 1.6 µM.
The like results for `O=C(NC1CCNC1)c1ccc(O)c2[nH]c(-c3cccs3)nc12` (stereo not drawn) [Example 44, 7-Hydroxy-N-(pyrrolidin-3-yl)-2-(thiophen-2-yl)-1H-benzo[d]imidazole-4-carboxamide] were, in that order, > 100 µM, 20 µM and 15 µM.
On the same counts, the results for `O=C(NCC1CCCCN1)c1ccc(O)c2[nH]c(-c3ccccc3)nc12` (stereo not drawn) [Example 18, 4-Hydroxy-2-phenyl-N-(piperidin-2-ylmethyl)-1H-benzo[d]imidazole-7-carboxamide] are 98 µM, 15 µM and 31 µM.
The like results for `O=C(N[C@@H]1CCCNC1)c1ccc(O)c2[nH]c(-c3cccs3)nc12` [Example 37, (R)-7-Hydroxy-N-(piperidin-3-yl)-2-(thiophen-2-yl)-1H-benzo[d]imidazole-4-carboxamide] were, in that order, > 100 µM, 11 µM and 20 µM.
Consider `O=C(N[C@H]1CCCNC1)c1ccc(O)c2[nH]c(C3CC4CCC3C4)nc12` (stereo partly drawn) [Example 52, 2-(Bicyclo[2.2.1]heptan-2-yl)-7-hydroxy-N-((S)-piperidin-3-yl)-1H-benzo[d]imidazole-4-carboxamide], for which the figures for the concentration for half-maximal inhibition (IC50) in experiment [1], in experiment [2] and in experiment [3] were 19 µM, 2.3 µM and 0.43 µM, respectively.
The like results for `O=C(NCC1CCCNC1)c1ccc(O)c2[nH]c(-c3cccs3)nc12` (stereo not drawn) [Example 39, 7-Hydroxy-N-(piperidin-3-ylmethyl)-2-(thiophen-2-yl)-1H-benzo[d]imidazole-4-carboxamide] were, in that order, > 100 µM, 8.6 µM and 15 µM.
On the same counts, the results for `O=C(NCC1CCCCN1)c1ccc(O)c2[nH]c(C3CC3)nc12` (stereo not drawn) [Example 7, 2-Cyclopropyl-4-hydroxy-N-(piperidin-2-ylmethyl)-1H-benzo[d]imidazole-7-carboxamide] are > 100 µM, 11 µM and 9.5 µM.
On the same counts, the results for `O=C(NC1CCCNC1)c1ccc(O)c2[nH]c(-c3cccs3)nc12` (stereo not drawn) [Example 35, 7-Hydroxy-N-(piperidin-3-yl)-2-(thiophen-2-yl)-1H-benzo[d]imidazole-4-carboxamide] are 49 µM, 0.81 µM and 0.77 µM.
Regarding `O=C(N[C@H]1CCCNC1)c1ccc(O)c2[nH]c(Cc3cccs3)nc12` [Example 59, (S)-7-hydroxy-N-(piperidin-3-yl)-2-(thiophen-2-ylmethyl)-1H-benzo[d]imidazole-4-carboxamide], the figures for the IC50 in experiment [1], in experiment [2] and in experiment [3] were 76 µM, 11 µM and 2.9 µM, respectively.
On the same counts, the results for `NC12CC3CC(C1)CC(NC(=O)c1ccc(O)c4[nH]c(C5CC6CCC5C6)nc14)(C3)C2` (stereo not drawn) [Example 53] are 24 µM, 5.2 µM and 4.6 µM.
On the same counts, the results for `O=C(NCC1CCCCN1)c1ccc(O)c2[nH]c(-c3cccs3)nc12` (stereo not drawn) [Example 45, 7-Hydroxy-N-(piperidin-2-ylmethyl)-2-(thiophen-2-yl)-1H-benzo[d]imidazole-4-carboxamide] are > 100 µM, 7.8 µM and 29 µM.
The like results for `O=C(NC1CCNCC1)c1ccc(O)c2[nH]c(C3CC3)nc12` [Example 10, 2-cyclopropyl-4-hydroxy-N-(piperidin-4-yl)-1H-benzo[d]imidazole-7-carboxamide] were, in that order, > 100 µM, 19 µM and 20 µM.
On to `O=C(NCC1CCCNC1)c1ccc(O)c2[nH]c(C3CC4CCC3C4)nc12` (stereo not drawn) [Example 48, 2-(Bicyclo[2.2.1]heptan-2-yl)-7-hydroxy-N-(piperidin-3-ylmethyl)-1H-benzo[d]imidazole-4-carboxamide], for which the IC50 in experiment [1] was ≥ 100 µM; in experiment [2], 49 µM; in experiment [3], 20 µM.
The like results for `O=C(NC1CCNC1)c1ccc(O)c2[nH]c(C3CC3)nc12` (stereo not drawn) [Example 12, 2-cyclopropyl-4-hydroxy-N-(pyrrolidin-3-yl)-1H-benzo[d]imidazole-7-carboxamide] were, in that order, > 100 µM, 58 µM and 47 µM.
The like results for `O=C(NC1CCCNC1)c1ccc(O)c2[nH]c(C3CC4CCC3C4)nc12` (stereo not drawn) [Example 49, 2-(Bicyclo[2.2.1]heptan-2-yl)-7-hydroxy-N-(piperidin-3-yl)-1H-benzo[d]imidazole-4-carboxamide] were, in that order, 14 µM, 4.1 µM and 0.65 µM.
